# Test results taken from patent US20100137240A1, “USE OF NUCLEOSIDE DERIVATIVES AS ANTI-KOI HERPES VIRUS IN FISH” (Katholieke Universiteit Leuven, priority 2007, published 2010).
# Read-outs that look alike come from different tables or passages of the source.
# Legend:
# Koi Herpes virus (KHV) [1] = test: Inhibition of Koi Herpes Virus infections in cell culture (plaque / cytopathic effect, crystal violet); format: cell-based, Koi herpesvirus (KHV); conditions: for IC50: Cyprinid herpesvirus 3, 120 h; for concentration resulting in complete inhibition of KHV replication: KHV in CCB cells, five days post infection; for effect on KHV replication (in words): in vitro
# Experimental: KHV inhibitory activity can be readily detected using the assays described herein, as well as other assays known to those of ordinary skill in the art. In general, carp cells are infected with KHV and are incubated with the compounds to be tested for inhibitory activity. A more detailed description is provided in the examples.
# (§1) Compounds for testing KHV-antiviral activity were dissolved in dimethylsulfoxide (DMSO) at a concentration of 20 mg/ml, then filtrated through a 0.45 μm filter to obtain a sterile solution. Common carp brain (CCB) cells were grown in minimum essential medium (MEM, commercially available from Invitrogen) containing 4.5 g/l glucose (D-glucose monohydrate, Merck) and 10% fetal calf serum (FCS, commercially available from BioWhittaker). Cells were incubated at 25° C. in a humid atmosphere containing 5% CO2. Confluent cell monolayers grown in 24 wells cluster dishes were inoculated with 200 plaque forming units (PFU) of KHV in 0.2 ml of serum free Dulbecco's Modified Eagle Medium (DMEM, commercially available from Invitrogen). […] Five days post infection (pi), viral plaques or virus induced cytopathic effects were observed by staining cells with a crystal violet (Merck) solution.
# as §1, with “Alternatively, PMEDAP was” for “Compounds for testing KHV-antiviral activity were”, “DMEM and propyleneglycol (33.3%)/ethanol(8.3%) (PE buffer) respectively,” for “dimethylsulfoxide (DMSO)”, “10 mg/ml.” for “20 mg/ml, then filtrated through a 0.45 μm filter to obtain a sterile solution.”, “modified eagle medium” for “Modified Eagle Medium”
# KHV infections = conditions: Ilouze et al., FEBS Letters (2006) 580(18) 4473-4478; cited from earlier work
# koi carps [2] = test: In vivo koi carps toxicity experiment, intramuscular injection; set-up: species or system koi carps (Cyprinus carpio koi); conditions: for Microscopic lesions: liver and kidney explants
# Experimental: An additional experiment was performed as following: Naive adult koi carps were kept in 60-liter tanks with filtrated water maintained at 23° C. […] (5 koi per group) were treated for 10 consecutive days, by intramuscular injection of 20 mg/kg PMEDAP ((“PMEDAP 20”) or 50 mg/kg PMEDAP (“PMEDAP 50”)) dissolved in 0.1 ml of DMEM. Two other groups (5 koi per group), used as negative controls, were injected with 0.1 ml of DMEM. After 10 days, all fish were examined and weighed. Three fishes of each group were euthanized. Liver and kidney explants were treated for anatomopathology analysis.
# koi carps [3] = test: In vivo koi carps toxicity experiment, intraperitoneal injection; set-up: species or system koi carps (Cyprinus carpio koi); conditions: 50 mg/kg intraperitoneal, 10 consecutive days
# Experimental: Naïve adult koi carps were kept in 150-liter tanks with filtrated water maintained at 23° C. One group (n=12) was treated for 10 consecutive days, by intraperitoneal injection of PMEDAP (50 mg/kg) dissolved in 0.2 ml of DMEM. The other group (n=12), used as negative control, was injected with 0.2 ml DMEM. After 10 days, all fish were examined and weighed. Three fishes of each group were euthanized. Liver and kidney explants were treated for anatomopathology analysis.
# Koi Herpes virus (KHV) [4] = test: Pulse chase treatment with PMEDAP on KHV growth in vitro; format: cell-based, Koi herpesvirus (KHV); conditions: 50 μg/ml PMEDAP for only the first 24 hours post infection, CCB cells, observed 5 days post-infection
# Experimental: PMEDAP was dissolved in DMSO at a concentration of 20 mg/ml then filtrated through a 0.45 μm filter. CCB cells were grown in 24-well culture plates in MEM containing 4.5 g/l glucose and 10% FCS. Cells were inoculated with 200 PFU of KHV in 0.2 ml of serum free DMEM. After 2 hours incubation, cells were overlaid with DMEM (4.5 g/l glucose, 10% FCS) containing 50 μg/ml of PMEDAP. Mock-infected cells and untreated infected cells (ND) were included as negative controls. At successive intervals pi, cells were washed twice with PBS then overlaid with complete DMEM. Five days pi, viral plaques were observed by a crystal violet assay.
# [5] = KHV (200 PFU) in CCB cells, compounds dissolved in DMSO, read five days post infection, read-out: IC50
# [6] = 20 mg/kg intramuscular, 10 consecutive days (PMEDAP 20)
# [7] = 50 mg/kg intramuscular, 10 consecutive days (PMEDAP 50)
structure (smiles),measurement,setting,value
"Nc1ncnc2c1ncn2CCOCP(=O)(O)O [PMEA (adefovir), 9-[2-phosphonylmethoxyethyl]adenine]",IC50,Koi Herpes virus (KHV) [1]; [5],6.5 mg/L
same,concentration resulting in complete inhibition of KHV replication,Koi Herpes virus (KHV) [1],25 µg/mL
Nc1nc2c(ncn2COCCO)c(=O)[nH]1 [acyclovir],effect on KHV replication (in words),Koi Herpes virus (KHV) [1],no effect or a very limited effect
same,activity against KHV infections (in words),KHV infections,inactive
"Nc1ccn(C[C@@H](CO)OCP(=O)(O)O)c(=O)n1 [HPMPC, cidofovir]",IC50,Koi Herpes virus (KHV) [1]; [5],50 mg/L
same,effect on KHV replication (in words),Koi Herpes virus (KHV) [1],no effect or a very limited effect
"Nc1nc(O)c2ncn(COC(CO)CO)c2n1 [GCV (ganciclovir), ganciclovir]",IC50,Koi Herpes virus (KHV) [1]; [5],100 mg/L
same,effect on KHV replication (in words),Koi Herpes virus (KHV) [1],no effect or a very limited effect
"Nc1nc(N)c2ncn(CCOCP(=O)(O)O)c2n1 [PMEDAP, 9-(2-phosphonylmethoxyethyl)-2,6-diaminopurine]",Clinical signs,koi carps [2]; [6],None
same,Survival (%),koi carps [2]; [6],100%
same,Microscopic lesions,koi carps [2]; [6],None
same,Mean final weight,"koi carps [2]; 20 mg/kg intramuscular, 10 consecutive days (PMEDAP 20), mean initial weight 23.1 g",21.3 g
same,Clinical signs,koi carps [2]; [7],None
same,Survival (%),koi carps [2]; [7],100%
same,Microscopic lesions,koi carps [2]; [7],None
same,Mean final weight,"koi carps [2]; 50 mg/kg intramuscular, 10 consecutive days (PMEDAP 50), mean initial weight 16.3 g",15.3 g
same,Clinical signs,koi carps [3],None
same,Survival (%),koi carps [3],100%
same,"mean weight of fishes, PMEDAP versus DMEM",koi carps [3],statistically similar
same,toxic effect (in words),koi carps [3],did not reveal any toxic effect
same,Microscopic lesions,koi carps [3]; liver and kidney explants,None
same,Mean final weight,koi carps [3]; mean initial weight 66.1 g,71.5 g
same,inhibition of virus induced cytopathic effect,Koi Herpes virus (KHV) [4],complete inhibition
same,IC50,Koi Herpes virus (KHV) [1]; [5],4.8 mg/L
same,concentration resulting in complete inhibition of KHV replication,Koi Herpes virus (KHV) [1],12.5 µg/mL
same,effect on KHV replication (in words),Koi Herpes virus (KHV) [1],highly active
"O=C(O)P(=O)(O)O [PFA (foscarnet), foscarnet]",IC50,Koi Herpes virus (KHV) [1]; [5],> 100 mg/L
"O=c1[nH]c(=O)n([C@H]2C[C@H](O)[C@@H](CO)O2)cc1/C=C/Br [BVDU (brivudin), brivudin]",IC50,Koi Herpes virus (KHV) [1],100 mg/L
same,effect on KHV replication (in words),Koi Herpes virus (KHV) [1],no effect or a very limited effect
